Test results as given in paper PMC10538174, “Bioactivity-Guided Synthesis: In Silico and In Vitro Studies of β-Glucosidase Inhibitors to Cope with Hepatic Cytotoxicity” (Molecules, 2023).

Tests used:
[1] = tested on: β-glucosidase from E. coli; experiment: β-glucosidase enzyme inhibition assay (p-nitrophenyl-β-D-glucopyranoside substrate); type: biochemical; details: for IC50: E. coli enzyme, pH 6.8, 37 °C, read at 405 nm, read-out: IC50 ± SEM against β-glucosidase; for % inhibition ± SD against β-glucosidase: test concentration not given
Method: β-glucosidase inhibition activity of the synthesized compounds, with an enzyme concentration of […] were used for the inhibition assay. The IC50 values were determined at different concentrations using Graph Pad Prism v5.0.
(§1) All of the reported results are the mean of three independent experiments, and those compounds showing > 50% inhibition were further analyzed for their IC50 values at different dilutions. The IC50 values were calculated by using nonlinear regression analysis and GraphPad Prism version 8. SEM = standard error mean.
The inhibition analysis of β-glucosidase was carried out, where p-nitrophenyl-β-D-glucopyranoside was used as a substrate, and the β-glucosidase from E. coli (purchased from Sigma Aldrich) was dissolved in buffer solution (pH 6.8). A total volume of 60 µL of sodium phosphate buffer, 10 µL of each test sample (dissolved in 1% DMSO), and 10 µL of enzyme (1.5 U/mL) were mixed together and incubated for 5 min at 37 °C, followed by the addition of 10 µL of p-nitrophenyl-β-D-glucopyranoside (dissolved in a buffer solution). Incubation of the mixture was carried out for 30 min, and 10 µL of 0.2 M sodium carbonate solution was subsequently added. DMSO (1%) was used as a negative control. The p-nitrophenol produced from p-nitrophenyl-β-D-glucopyranoside was measured at a λmax of 405 nm in order to evaluate the activity of the test compounds against β-glucosidase. The %inhibition of β-glucosidase was calculated by the following formula: %Inhibition=(100−sample/control×100
Graph Pad Prism v5.00 was used to find out the IC50 (concentration at which 50% of enzymatic activity was inhibited by the test sample) value from a second-order regression analysis.

HepG2 cells = experiment: MTT cell viability assay on HepG2 hepatic cancer cells; type: cell-based, human; details: for viability at 200 µg / IC50: Homo sapiens, HepG2, 48 h, MTT, 48 h; for viability at 200 µg: concentration of 200 µg, read-out: % viability ± SD against HepG2 cancer cell lines; for IC50: read-out: IC50 ± SEM against HepG2 cancer cell line
Method: as §1
The human liver cells were cultivated in Dulbecco’s modified Eagle medium (DMEM), in which 100 U/mL penicillin, 10% fetal bovine, and 100 µg/mL streptomycin were added and kept at 37 °C in a […] carbon dioxide-induced humidified environment. The human liver cells prepared as per the above procedure were then treated with synthesized compounds diluted to a 0.05% DMSO concentration.
By using an MTT assay, the %viability of cancer cells was evaluated. According to the standard procedure, the HepG2 cells were treated with various dosages of synthesized compounds for 48 h each. The cells were then incubated for 4 h at 37 °C with 10 μMTT reagent (5 mg/mL). Next, 150 μL of DMSO was added to dissolve the formazan crystals. The λmax was recorded at […] in a microplate reader (Thermos Scientific, Waltham, MA, USA).

| Compound | IC50 [1] | IC50 (HepG2 cells) | % inhibition ± SD against β-glucosidase [1] | β-glucosidase inhibition better than the standard ([1]; versus acarbose) | viability at 200 µg (HepG2 cells) | more anti-tumor activity against the HepG2 cell line than the known drug (HepG2 cells; versus thalidomide) |
| --- | --- | --- | --- | --- | --- | --- |
| O=C(O)c1ccc(NC(=O)c2ccccc2C(=O)O)cc1 [Compound 1c] | 1.26 µM | – | 76 ± 1.41% | 40% | 35.6% | – |
| O=C1c2ccccc2C(=O)N1Cc1ccccc1 [Compound 6c] | – | – | 45.0 ± 1.41% | – | – | – |
| O=C(O)c1ccccc1C(=O)Nc1ccc(Cl)c(C(F)(F)F)c1 [Compound 3c] | 3 ± 0.17 µM | – | 70 ± 2.82% | – | 12.8% | greater than 9% |
| O=C(O)c1ccccc1C(=O)Nc1ccc(Cl)cc1 [Compound 4c] | – | – | 42 ± 1.42% | – | 26.9% | – |
| O=C(O)c1ccc(N2C(=O)c3ccccc3C2=O)cc1 [Compound 9c] | – | – | 61.5 ±0.12% | – | – | – |
| C[C@H]1O[C@H](O[C@H]2[C@H](O)[C@@H](O)[C@@H](O[C@H]3[C@H](O)[C@@H](O)C(O)O[C@@H]3CO)O[C@@H]2CO)[C@H](O)[C@@H](O)[C@@H]1N[C@H]1C=C(CO)[C@@H](O)[C@H](O)[C@H]1O (stereo partly shown) [Acarbose, reference compound] | 2.15 µM | – | – | – | – | – |
| O=C1c2ccccc2C(=O)N1c1ccccc1 [Compound 12c] | – | – | 45.2 ±0.4% | – | 27.2% | – |

Further lines, with some results ahead:

| IC50 [1] | IC50 (HepG2 cells) | Compound | % inhibition ± SD against β-glucosidase [1] | β-glucosidase inhibition better than the standard ([1]; versus acarbose) | viability at 200 µg (HepG2 cells) | more anti-tumor activity against the HepG2 cell line than the known drug (HepG2 cells; versus thalidomide) |
| --- | --- | --- | --- | --- | --- | --- |
| 4.78 ± 0.27 µM | – | O=C(O)CCCCCN1C(=O)c2ccccc2C1=O [Compound 8c] | 70.5 ± 2.12% | – | 24.8% | – |
| 9.57 ± 0.22 µM | – | Cc1c(N2C(=O)c3ccccc3C2=O)c(=O)n(-c2ccccc2)n1C [Compound 11c] | 56.5 ± 2.45% | – | 40.8 ± 2.5% | – |
| 1.26 ± 0.11 µM | – | O=C(O)c1ccccc1C(=O)N1CCN(CCN2C(=O)c3ccccc3C2=O)CC1 [Compound 5c] | 71 ± 1.2% | – | 42.2 ± 2.2% | – |
| 2.17 ± 0.11 µM | – | O=C(O)c1ccccc1C(=O)Nc1ccc([N+](=O)[O-])cc1 [Compound 2c] | 68 ± 1.41% | – | 29.4% | – |
| 6.98 ± 0.31 µM | 12.8 ± 2.33 µM | Cc1ccc(N2C(=O)c3ccccc3C2=O)cc1 [Compound 7c] | 63.5 ± 0.71% | – | 21.4 ± 3.4% | – |
| – | 48 ± 2.18 µM | O=C1c2ccccc2C(=O)N1c1ccccc1F [Compound 10c] | 50.5 ± 2.31% | – | 20.5 ± 4.2% | – |
